# Data reported in patent US11149022B2, “Antagonists of the muscarinic acetylcholine receptor M4” (Vanderbilt University, priority 2017, dated 2021).
# Target: T1, Human M4 (Homo sapiens, UniProt P08173)
# T1 construct: expressed in transfected cells; host or cells: CHO-K1 (ATCC), stably co-expressing chimeric G protein Gqi5
# T1 sequence (P08173 1-479): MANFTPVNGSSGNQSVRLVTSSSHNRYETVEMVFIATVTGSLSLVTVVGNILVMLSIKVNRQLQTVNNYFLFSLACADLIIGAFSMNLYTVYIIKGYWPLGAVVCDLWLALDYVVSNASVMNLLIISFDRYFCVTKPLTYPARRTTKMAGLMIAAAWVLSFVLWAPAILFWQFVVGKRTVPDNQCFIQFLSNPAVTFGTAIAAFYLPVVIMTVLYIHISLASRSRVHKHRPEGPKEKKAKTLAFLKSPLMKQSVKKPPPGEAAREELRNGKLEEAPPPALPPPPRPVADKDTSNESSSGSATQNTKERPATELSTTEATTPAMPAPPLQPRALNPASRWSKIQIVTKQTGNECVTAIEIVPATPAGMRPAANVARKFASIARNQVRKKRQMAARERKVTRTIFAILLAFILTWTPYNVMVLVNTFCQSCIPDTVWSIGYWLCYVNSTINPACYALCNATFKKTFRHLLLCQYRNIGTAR
# Experiment: mAChR M4 cell-based functional assay (calcium flux, antagonist mode)
# Conditions: for remaining activity at 30 µM: % ACh maximum at 30 μM, read-out: Emin; for IC50: M4/Gqi5/CHO-K1 cells, concentration-dependent decrease of the EC80 acetylcholine response
# Experimental: Human or rat M4 cDNA, along with the chimeric G protein Gqi5, were transfected into Chinese hamster ovary (CHO-K1) cells purchased from the American Type Culture Collection using Lipofectamine2000. M4/Gqi5/CHO cells were grown in Ham's F-12 medium containing 10% heat-inactivated fetal bovine serum (FBS), 20 mM HEPES, 500 μg/mL G418 sulfate, and 200 μg/mL Hygromycin B.
# For high throughput measurement of agonist-evoked increases in intracellular calcium, CHO-K1 cells stably expressing muscarinic receptors were plated in growth medium lacking G418 and hygromycin at 15,000 cells/20 μL/well in Greiner 384-well black-walled, tissue culture (TC)-treated, clear-bottom plates (VWR). Cells were incubated overnight at 37° C. and 5% CO2. The next day, cells were washed using an ELX 405 (BioTek) with assay buffer; the final volume was then aspirated to 20 μL, Next, 20 μL of a 2.3 μM stock of Fluo-4/acetoxymethyl ester (Invitrogen, Carlsbad, Calif.), prepared as a 2.3 μM stock in DMSO, mixed in a 1:1 ratio with 10% (w/v) Pluronic F-127 and diluted in assay buffer, was added to the wells and the cell plates were incubated for 50 min at 37° C. and 5% CO2. Dye was removed by washing with the ELX 405 and the final volume was aspirated to […]. Compound master plates were formatted in a 10 point concentration-response curve (CRC) format (1:3 dilutions) in 100% DMSO with a starting concentration of 10 or 1 mM using a BRAVO liquid handler (Agilent). Test compound CRCs were then transferred to daughter plates (240 nL) using the Echo acoustic plate reformatter (Labcyte, Sunnyvale, Calif.) and then diluted into assay buffer (40 μL) to a 2× stock using a Thermo Fisher Combi (Thermo Fisher Scientific, Waltham, Mass.).
# Calcium flux was measured using the Functional Drug Screening System (FDSS) 6000 or 7000 (Hamamatsu Corporation, Tokyo, Japan) as an increase in the fluorescent static ratio. Compounds were applied to cells (20 μL, 2×) using the automated system of the FDSS at 2 seconds into the protocol and the data were collected at 1 Hz. At 143 s, 10 μL of an EC20 concentration of the muscarinic receptor agonist acetylcholine was added (5×), followed by the addition of 12 μL of an EC80 concentration of acetylcholine at the 268 s time point (5×). Agonist activity was analyzed as a concentration-dependent increase in calcium mobilization upon compound addition. Positive allosteric modulator activity was analyzed as a concentration-dependent increase in the EC20 acetylcholine response. Antagonist activity was analyzed as a concentration-dependent decrease in the EC80 acetylcholine response; for the purposes of the tables herein, an […] (inhibitory concentration 50) was calculated as a concentration-dependent decrease of the response elicited by an EC80 concentration of acetylcholine. Concentration-response curves were generated using a four-parameter logistical equation in XLFit curve fitting software (IDBS, Bridgewater, N.J.) for Excel (Microsoft, Redmond, Wash.) or Prism (GraphPad Software, Inc., San Diego, Calif.) or the Dotmatics software platform (Dotmatics, Bishop's Stortford, UK).
# Compounds were synthesized as described above. Activity (IC50 and Emin) was determined in the mAChR M4 cell-based functional assay as described above and the data are shown in Table 4.
Structure (SMILES),remaining activity at 30 µM,IC50
"Cc1nn(C)cc1-c1ccc(NCC2CC3(CCN(CC4CCCCC4)CC3)C2)nn1 [Compound 50, N-[[7-(cyclohexylmethyl)-7-azaspiro[3.5]nonan-2-yl]methyl]-6-(1,3-dimethylpyrazol-4-yl)pyridazin-3-amine]",6.19%,1160 nM
"Cc1nn(C)cc1-c1ccc(OC2CC3(CCN(Cc4ccccc4)CC3)C2)nn1 [Compound 30, 7-benzyl-2-[6-(1,3-dimethylpyrazol-4-yl)pyridazin-3-yl]oxy-7-azaspiro[3.5]nonane]",5.31%,1630 nM
"Fc1ccc(Cl)c(-c2ccc(NCC3CC4(CCN(CC5CCCOC5)CC4)C3)nn2)c1 (stereo not shown) [Compound 43, 6-(2-chloro-5-fluoro-phenyl)-N-[[7-(tetrahydropyran-3-ylmethyl)-7-azaspiro[3.5]nonan-2-yl]methyl]pyridazin-3-amine]",5.29%,2280 nM
"Cc1nn(C)cc1-c1ccc(NCC2CC3(CCN(Cc4ccc(F)cc4)CC3)C2)nn1 [Compound 58, 6-(1,3-dimethylpyrazol-4-yl)-N-[[7-[(4-fluorophenyl)methyl]-7-azaspiro[3.5]nonan-2-yl]methyl]pyridazin-3-amine]",11.8%,5100 nM
"Cc1cnn(C)c1-c1ccc(OC2CC3(CCN(CCC(C)(C)C)CC3)C2)nn1 [Compound 14, 7-(3,3-Dimethylbutyl)-2-[6-(2,4-dimethylpyrazol-3-yl)pyridazin-3-yl]oxy-7-azaspiro[3.5]nonane]",3.92%,240 nM
Cc1nn(C)cc1-c1ccc(NC2CC3(CCN(CC4CCSCC4)CC3)C2)nn1 [Compound 6],4.58%,330 nM
"Fc1ccc(Cl)c(-c2ccc(NCC3CC4(CCN(Cc5ccccc5F)CC4)C3)nn2)c1 [Compound 46, 6-(2-chloro-5-fluoro-phenyl)-N-[[7-[(2-fluorophenyl)methyl]-7-azaspiro[3.5]nonan-2-yl]methyl]pyridazin-3-amine]",9.19%,780 nM
"Fc1ccc(Cl)c(-c2ccc(OC3CC4(CCN(CC5CC6C=CC5C6)CC4)C3)nn2)c1 (stereo not shown) [Compound 16, 7-(5-bicyclo[2.2.1]hept-2-enylmethyl)-2-[6-(2-chloro-5-fluoro-phenyl)pyridazin-3-yl]oxy-7-azaspiro[3.5]nonane]",3.07%,180 nM
"Fc1ccc(Cl)c(-c2ccc(NCC3CC4(CCN(Cc5ccccc5)CC4)C3)nn2)c1 [Compound 45, N-[(7-benzyl-7-azaspiro[3.5]nonan-2-yl)methyl]-6-(2-chloro-5-fluoro-phenyl)pyridazin-3-amine]",5.72%,1340 nM
"Cc1cnn(C)c1-c1ccc(NC2CC3(CCN(CCC(C)(C)C)CC3)C2)nn1 [Compound 2, 7-(3,3-Dimethylbutyl)-N-[6-(2,4-dimethylpyrazol-3-yl)pyridazin-3-yl]-7-azaspiro[3.5]nonan-2-amine]",3.29%,89 nM
"CC(C)(C)CCN1CCC2(CC1)CC(CNc1ccc(-c3cc(F)ccc3Cl)nn1)C2 [Compound 41, 6-(2-chloro-5-fluoro-phenyl)-N-[[7-(3,3-dimethylbutyl)-7-azaspiro[3.5]nonan-2-yl]methyl]pyridazin-3-amine]",2.42%,470 nM

# More lines, in order of falling IC50, values ahead:
remaining activity at 30 µM,IC50,Structure (SMILES)
6.27%,3140 nM,"Fc1ccc(Cl)c(-c2ccc(NCC3CC4(CCN(CC5CCCCC5)CC4)C3)nn2)c1 [Compound 42, 6-(2-chloro-5-fluoro-phenyl)-N-[[7-(cyclohexylmethyl)-7-azaspiro[3.5]nonan-2-yl]methyl]pyridazin-3-amine]"
8.3%,2740 nM,"Fc1ccc(Cl)c(-c2ccc(OCC3CC4(CCN(Cc5ccccn5)CC4)C3)nn2)c1 [Compound 66, 2-[[6-(2-chloro-5-fluoro-phenyl)pyridazin-3-yl]oxymethyl]-7-(2-pyridylmethyl)-7-azaspiro[3.5]nonane]"
3.34%,1270 nM,"Fc1ccc(Cl)c(-c2ccc(OC3CC4(CCN(Cc5ccccc5)CC4)C3)nn2)c1 [Compound 22, 7-benzyl-2-[6-(2-chloro-5-fluoro-phenyl)pyridazin-3-yl]oxy-7-azaspiro[3.5]nonane]"
5.29%,1170 nM,"Cc1nn(C)cc1-c1ccc(OC2CC3(CCN(CC4CCSCC4)CC3)C2)nn1 [Compound 29, 2-[6-(1,3-dimethylpyrazol-4-yl)pyridazin-3-yl]oxy-7-(tetrahydrothiopyran-4-ylmethyl)-7-azaspiro[3.5]nonane]"
3.36%,900 nM,"Cc1cccnc1CN1CCC2(CC1)CC(Oc1ccc(-c3cc(F)ccc3Cl)nn1)C2 [Compound 23, 2-[6-(2-chloro-5-fluoro-phenyl)pyridazin-3-yl]oxy-7-[(3-methyl-2-pyridyl)methyl]-7-azaspiro[3.5]nonane]"
2.73%,590 nM,"CC(CN1CCC2(CC1)CC(Oc1ccc(-c3cc(F)ccc3Cl)nn1)C2)C(C)(C)C (stereo not shown) [Compound 17, 2-[6-(2-chloro-5-fluoro-phenyl)pyridazin-3-yl]oxy-7-(2,3,3-trimethylbutyl)-7-azaspiro[3.5]nonane]"
3.22%,530 nM,"Fc1ccc(Cl)c(-c2ccc(OC3CC4(CCN(CC5CCSCC5)CC4)C3)nn2)c1 [Compound 21, 2-[6-(2-chloro-5-fluoro-phenyl)pyridazin-3-yl]oxy-7-(tetrahydrothiopyran-4-ylmethyl)-7-azaspiro[3.5]nonane]"
3.87%,250 nM,"Cc1cnn(C)c1-c1ccc(OC2CC3(CCN(CC(C)C(C)(C)C)CC3)C2)nn1 (stereo not shown) [Compound 33, 2-[6-(2,4-dimethylpyrazol-3-yl)pyridazin-3-yl]oxy-7-(2,3,3-trimethylbutyl)-7-azaspiro[3.5]nonane]"
3.1%,210 nM,"Cc1nn(C)cc1-c1ccc(OC2CC3(CCN(CC(C)C(C)(C)C)CC3)C2)nn1 (stereo not shown) [Compound 25, 2-[6-(1,3-dimethylpyrazol-4-yl)pyridazin-3-yl]oxy-7-(2,3,3-triniethylbutyl)-7-azaspiro[3.5]nonane]"
5.41%,180 nM,"Cc1nn(C)cc1-c1ccc(NCC2CC3(CCN(CC4CC5C=CC4C5)CC3)C2)nn1 (stereo not shown) [Compound 59, N-[[7-(5-bicyclo[2.2.1]hept-2-enylmethyl)-7-azaspiro[3.5]nonan-2-yl]methyl]-6-(1,3-dimethylpyrazol-4-yl)pyridazin-3-amine]"
3.96%,160 nM,"Cc1cnn(C)c1-c1ccc(OC2CC3(CCN(CC4CC5C=CC4C5)CC3)C2)nn1 (stereo not shown) [Compound 32, 7-(5-bicyclo[2.2.1]hept-2-enylmethyl)-2-[6-(2,4-dimethylpyrazol-3-yl)pyridazin-3-yl]oxy-7-azaspiro[3.5]nonane]"
3.12%,10 nM,"Cc1nn(C)cc1-c1ccc(NC2CC3(CCN(CC4CC5C=CC4C5)CC3)C2)nn1 (stereo not shown) [Compound 3, 7-(5-bicyclo[2.2.1]hept-2-enylmethyl)-N-[6-(1,3-dimethylpyrazol-4-yl)pyridazin-3-yl]-7-azaspiro[3.5]nonan-2-amine]"
